*1 amine or outer side, *2 acyl side, *3 side chain or, on linkers, in order; H or OH if unused. Where a SMILES comes first, the peptide text is derived from it. Bridges are numbered along the chain shown (N, C = ends). Roman numbers before positions name the chains, in order. [ ]: non-standard residue; d: D form. Actinocin(9to1) = Cc1c2oc3c(C)ccc(C(=O)[*:1])c3nc-2c(C(=O)[*:2])c(N)c1=O; NMeV = CN[C@H](C(=O)O)C(C)C; Sar = CNCC(=O)O
Experiments:
mice = test: Toxicity (LD50, i.p., mice)
[1] = tested on: KB: epidermal carcinoma of the oral cavity; test: In vivo antitumor activity (hollow fiber assay), KB; conditions: for % Inhibition (cell line) KB: location s.c., i.p. doses (mg/kg): sootepenseone 4 × 10, Actinomycin D 4 × 0.1, Adriamycin 4 × 4, Bleomycin 4 × 8, Vinblastin 4 × 0.65
Description: (§1) The hollow-fiber test was carried out as described by Melinda G. Hollingshead et al. in Life Sciences, Vol. 57, No. 2, pp.131-141, 1995.

[2] = tested on: MCF-7: human breast cancer; test: In vivo antitumor activity (hollow fiber assay), MCF-7; conditions: location s.c.; i.p. doses (mg/kg): sootepenseone 4 × 10, Actinomycin D 4 × 0.1, Adriamycin 4 × 4, Bleomycin 4 × 8, Vinblastin 4 × 0.65; negative values = increase in cell growth
Description: as §1

in vivo = conditions: mouse, ip
[3] = tested on: KB: epidermal carcinoma of the oral cavity; test: XTT proliferation/cytotoxicity test, KB; type: cell-based; conditions: all tested tumor cell lines (KB, L1210, SK-OV-3, LNCAP)
Description: The XTT-assay was carried out as described by D. A. Scudiero et al., Cancer Res. 48 (Sep. 1, 1988), pp. 4827-4833. The results of this procedure are expressed as that dose which inhibits growth by 50% as compared to control growth after 45 hours following application of the substance. The dose value as obtained is referred to as ED 50 and activity is indicated for ED 50 levels of ≦30 μg/ml. […] The activities of sootepenseone (1) obtained in Example 1 are reported below in Table 2.

Row | Compound | LD50 (mg/kg i.p. mice) (mice) | % Inhibition (cell line) KB [1] | % Inhibition (cell line) MCF-7 [2] | LD50 (in vivo) | anticancer activity against all tested tumor cell lines [3] | less toxic than Adriamycin (mice; from LD50 i.p. mice) | less toxic than Bleomycin (mice; from LD50 i.p. mice) | times less toxic than Actinomycin D (mice; from LD50 i.p. mice) | times less toxic than Vinblastin (mice; from LD50 i.p. mice) | activity in the hollow-fiber test compared with the standard compounds ([1]; in words, KB and MCF-7)
1 | Cc1c2oc3c(C)ccc(C(=O)N[C@@H]4C(=O)N[C@H](C(C)C)C(=O)N5CCC[C@H]5C(=O)N(C)CC(=O)N(C)[C@@H](C(C)C)C(=O)O[C@@H]4C)c3nc-2c(C(=O)N[C@@H]2C(=O)N[C@H](C(C)C)C(=O)N3CCC[C@H]3C(=O)N(C)CC(=O)N(C)[C@@H](C(C)C)C(=O)O[C@@H]2C)c(N)c1=O [Actinomycin D] (I: T[dV]P[Sar][NMeV] / II: T[dV]P[Sar][NMeV]; ester I:1-I:C, II:1-II:C; linker I:N-II:N via Actinocin(9to1)) | ca. 1 mg/kg | 40% | – | – | – | – | – | – | – | –
2 | COc1cccc2c1C(=O)c1c(O)c3c(c(O)c1C2=O)C[C@@](O)(C(=O)CO)C[C@@H]3O[C@H]1C[C@H](N)[C@H](O)[C@H](C)O1 [Adriamycin] | – | 52% | 41% | ~40 mg/kg | – | – | – | – | – | –
3 | CC(C)=CC[C@]12OC(C)(C)C3CC(C=C4C(=O)c5c(O)cc6c(c5OC431)C(C)(C)C(C)O6)C2=O (stereo partly drawn) [Sootepenseone (1; D-25637), sootepenseone] | – | 49% | 41% | > 100 mg/kg | significant anticancer activity | 60% | 20% | at least 100 times | about 16 times | more active
4 | CC[C@]1(O)C[C@@H]2CN(CCc3c([nH]c4ccccc34)[C@@](C(=O)OC)(c3cc4c(cc3OC)N(C)[C@H]3[C@@](O)(C(=O)OC)[C@H](OC(C)=O)[C@]5(CC)C=CCN6CC[C@]43[C@@H]65)C2)C1 [Vinblastin] | ca. 6 mg/kg | 13% | – | – | – | – | – | – | – | –
5 | Bleomycin | ca. 80 mg/kg | 53% | – | – | – | – | – | – | – | –

Source: US6403636B1, “Xanthone compounds, their preparation and use as medicament” (Zentaris AG, priority 1999, dated 2002)
